PubChem BioAssay (NCI)
Values joined by “and” are separate entries in the source; they are usually repeats but may differ in a detail not shown here. Identical values can stand only once.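 Grown in 96-well plates, cells were treated for 48 hours with each compound at five concentrations. Insufficient inhibition: endpoint recorded as highest concentration tested. Abbreviation: GI50, concentration required for 50% inhibition of growth. TGI is the concentration that stops growth completely.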

Tests used:
Assay in all cases: inhibition of tumour cell growth, NCI panel, 48 h
[1] = tested on: U251 CNS
[2] = tested on: OVCAR-5 ovarian
[3] = tested on: SF-295 CNS
[4] = tested on: OVCAR-8 ovarian
[5] = tested on: CAKI-1 renal
[6] = tested on: SK-MEL-28 melanoma
[7] = tested on: EKVX NSCLC
[8] = tested on: RPMI-8226 leukemia
[9] = tested on: SK-OV-3 ovarian
[10] = tested on: PC-3 prostate

SMILES	GI50 [1]	TGI [1]	GI50 [2]	TGI [2]	GI50 [3]	TGI [3]	GI50 [4]	TGI [4]	GI50 [5]	TGI [5]	GI50 [6]	TGI [6]	GI50 [7]	TGI [7]	GI50 [8]	TGI [8]	GI50 [9]	TGI [9]	GI50 [10]	TGI [10]
CC(=O)[CH-]C(C)=O.CC(=O)[CH-]C(C)=O.[Cl-].[O]=[V]	22.5 µM	59 µM	26.4 µM	70.1 µM	12.1 µM	44.8 µM	46.4 µM	> 100 µM	55.3 µM	> 100 µM	25.7 µM	> 100 µM	30.3 µM	> 100 µM						
CCC[CH2][Sn]1([CH2]CCC)[O]CC[S]1	0.564 µM	1.64 µM	1.39 µM	2.72 µM	1.42 µM	2.76 µM	1.19 µM	2.68 µM	0.221 µM	1.51 µM	0.238 µM	0.898 µM	0.749 µM	2.1 µM	0.162 µM	0.551 µM	1.61 µM	2.96 µM		
C[N+](C)(C)C1CC([N+](C)(C)C)C2c3ccccc3C21 (configuration not stated)		> 100 µM		> 100 µM		> 100 µM		> 100 µM		> 100 µM		> 100 µM		> 100 µM		> 100 µM		> 100 µM		
C1C[OH+]CCNCC[OH+]CC[OH+]CCN1.N.[Cl-].[Pt+4]	> 100 µM	> 100 µM			49 µM	> 100 µM	18.8 µM	> 100 µM	29 µM	> 100 µM	49.5 µM	> 100 µM			27.5 µM	> 100 µM	25.1 µM	96 µM		
O=C1c2cc3c(cc2-c2c1c1ccc(F)cc1c(=O)n2C[C@H](O)[C@H](O)[C@H](O)CO)OCO3	0.05 µM	0.258 µM	0.253 µM	0.866 µM	0.0624 µM	0.513 µM	0.203 µM	0.66 µM			0.282 µM	1.51 µM	0.357 µM	4.63 µM	0.505 µM	5.6 µM	0.186 µM	0.694 µM	0.204 µM	14.9 µM
O=[N+]([O-])c1ccc(N=Nc2c(Cl)cc(O)cc2Cl)cc1	0.977 µM	11.2 µM	4.22 µM	16.5 µM	1.56 µM	3.06 µM	1.09 µM	5.63 µM	2.26 µM	5.79 µM	1.92 µM	8.55 µM	1.94 µM	5.57 µM			2.1 µM	10.3 µM	2.72 µM	15.4 µM
O=[N+]([O-])c1cc(I)cc(/C=N/NS(=O)(=O)c2ccc(Cl)cc2)c1O		40.3 µM		71.6 µM		60.6 µM		37.6 µM		54.9 µM		73.8 µM		83 µM		59.7 µM		65 µM		
NNc1nc2ccccc2o1		> 100 µM		> 100 µM				> 100 µM		> 100 µM		> 100 µM		> 100 µM		> 100 µM				> 100 µM
O=C(O)CCSC(=O)Nc1cccc2ccccc12		> 100 µM		> 100 µM		> 100 µM		> 100 µM		> 100 µM		> 100 µM		> 100 µM		> 100 µM		> 100 µM		
Brc1ccc(C=NC23CC4CC(CC(C4)C2)C3)cc1		> 100 µM		> 100 µM		> 100 µM		> 100 µM		> 100 µM		> 100 µM		> 100 µM		> 100 µM		> 100 µM		
CC[O-].CC[O-].O=C([CH-]C(=O)c1ccccc1)CCCCCCC(=O)[CH-]C(=O)c1ccccc1.[Ti+4]	> 100 µM	> 100 µM	> 100 µM	> 100 µM	> 100 µM	> 100 µM	> 100 µM	> 100 µM	> 100 µM	> 100 µM	> 100 µM	> 100 µM	> 100 µM	> 100 µM	> 100 µM	> 100 µM	> 100 µM	> 100 µM		
Cc1ccc(/C=N/NS(=O)(=O)c2ccccc2)cc1C		> 100 µM		> 100 µM		> 100 µM		> 100 µM		> 100 µM		> 100 µM		> 100 µM		> 100 µM		> 100 µM		
CC(C)CCCCCCCCCCCCC(=O)NCC(=O)NC1C(C)OC(Nc2ncnc3nc[nH]c23)C(O)C1O (configuration not stated)	0.000334 µM	0.038 µM	0.00814 µM		0.0176 µM	< 0.0295 µM	0.00187 µM	0.00924 µM and 0.0182 µM	0.00264 µM		0.00869 µM and 0.0484 µM	0.485 µM and 1.26 µM	0.0251 µM				0.000454 µM and 0.00314 µM	0.00397 µM and 0.0286 µM		
CCOC(=O)CNC(=O)OCc1ccccc1		> 100 µM		> 100 µM		> 100 µM		> 100 µM		> 100 µM		> 100 µM						> 100 µM		
CCN(CC)CCCNc1n[n+]([O-])c2ccccc2[n+]1[O-]		> 100 µM		69.7 µM		49.3 µM		29.3 µM		> 100 µM		> 100 µM				23.3 µM				> 100 µM
O=C1NC2(CCCC2)C2CCCCC12O (configuration not stated)		> 100 µM		> 100 µM		> 100 µM		> 100 µM		> 100 µM		> 100 µM		> 100 µM		> 100 µM		> 100 µM		
CC[C@]12C=CCN3CC[C@@]4(c5ccc(OC)cc5N(C)[C@H]4[C@@](O)(C(=O)OC)[C@@H]1OC(=O)CCC(=O)O[C@H]1CC[C@H]4[C@@H]5CC[C@H]6CC(=O)CC[C@]6(C)[C@H]5CC[C@]14C)[C@@H]32	3.74 µM	22.8 µM	2.69 µM	> 100 µM	2.02 µM	> 100 µM	5.84 µM	> 100 µM			3.27 µM	> 100 µM	1.78 µM	> 100 µM			2.89 µM	9.55 µM	0.703 µM	> 100 µM
COc1ccc(-c2cc(-c3ccc(OC)cc3)nc(NCCCNc3ccnc4cc(Cl)ccc34)n2)cc1	1.6 µM	3 µM	1.67 µM	3.14 µM	13.9 µM	32 µM	1.81 µM	3.57 µM	11.8 µM	25.8 µM	1.73 µM	3.21 µM	1.67 µM	4.17 µM			1.71 µM	3.14 µM		
